The record followed here is PubChem BioAssay AID210 (DTP/NCI, 2004).

“And” between values parts separate entries of the source, which are not always exact repeats. Equal entries are not always repeated. Inconclusive results and toxic doses are left out.

This assay relates to CD2F1 mice, ip Colon 26 adenocarcinoma, median survival T/C. The experiment in a line: NCI In Vivo Anticancer Drug Screen. Data for tumor model Colon 26 Adenocarcinoma (intraperitoneal) in CD2F1 (CDF1) mice. As to conditions: endpoint: median survival time, higher = longer survival. Here is the method:
The antitumor activity of compounds was measured in mice bearing transplantable tumors. Survival or tumor size were measured and the results are expressed as the measurement made in the treated group (T) divided by the measurement made in the vehicle treated control group (C). The tumor model used in this assay is Colon 26 Adenocarcinoma (intraperitoneal) in CD2F1 (CDF1) mice

[1] abbreviates: dose: 100.0 mg/kg/injection, schedule: Q04DX003 (ip), vehicle: Klucel (hydroxypropylcellulose) (HPC).

As to `N[C@H](C(=O)O)[C@@H]1CC(Cl)=NO1`, the T/C is, setting by setting: (dose: 1.0 mg/kg/injection, schedule: Q04DX003 (ip), vehicle: saline) 102 % of control; (dose: 2.0 mg/kg/injection, schedule: Q04DX003 (ip), vehicle: saline) 105 % of control; (dose: 4.0 mg/kg/injection, schedule: Q04DX003 (ip), vehicle: saline) 107 % of control; (dose: 8.0 mg/kg/injection, schedule: Q04DX003 (ip), vehicle: saline) 103 % of control; (dose: 16.0 mg/kg/injection, schedule: Q04DX003 (ip), vehicle: saline) 110 % of control; (dose: 32.0 mg/kg/injection, schedule: Q04DX003 (ip), vehicle: saline) 107 % of control.

`COc1cccc2c1C(=O)c1c(O)c3c(c(O)c1C2=O)CC(O)(C(=O)CO)CC3OC1CC(N)C(O)C(C)O1` (centres undefined): the T/C is, setting by setting: (dose: 1.13 mg/kg/injection, schedule: Q04DX003 (ip), vehicle: water) 107 % of control; (dose: 2.25 mg/kg/injection, schedule: Q04DX003 (ip), vehicle: water) 99 % of control and 113 % of control; (dose: 4.5 mg/kg/injection, schedule: Q04DX003 (ip), vehicle: water) 113 % of control; (dose: 9.0 mg/kg/injection, schedule: Q04DX003 (ip), vehicle: water) 116 % of control and 117 % of control; (dose: 18.0 mg/kg/injection, schedule: Q04DX003 (ip), vehicle: water) 117 % of control; (dose: 36.0 mg/kg/injection, schedule: Q04DX003 (ip), vehicle: water) 111 % of control. Moreover, the T/C by setting is: (dose: 55.0 mg/kg/injection, schedule: Q07DX002 (iv), vehicle: saline) 107 % of control; (dose: 74.0 mg/kg/injection, schedule: Q07DX002 (iv), vehicle: saline) 112 % of control; (dose: 190.0 mg/kg/injection, schedule: Q07DX002 (iv), vehicle: saline) 124 % of control.

Turning to `COc1cccc2c1C(=O)c1c(O)c3c(c(O)c1C2=O)C[C@@](O)(C(=O)CO)C[C@@H]3OC1CC(OC(C)=O)C(OC(C)=O)C(C)O1` (some centres undefined), the T/C was 109 % of control (dose: 58.0 mg/kg/injection, schedule: Q07DX002 (sc), vehicle: distilled water + Tween-80); 120 % of control (dose: 101.0 mg/kg/injection, schedule: Q07DX002 (sc), vehicle: distilled water + Tween-80); 150 % of control (dose: 300.0 mg/kg/injection, schedule: Q07DX002 (sc), vehicle: distilled water + Tween-80).

In the case of `Cc1c2ccncc2c(C)c2c1[nH]c1ccccc12`, the T/C (dose: 12.5 mg/kg/injection, schedule: Q04DX002 (ip), vehicle: Klucel (hydroxypropylcellulose) (HPC)) was 158 % of control; the T/C (dose: 12.5 mg/kg/injection, schedule: Q04DX002 (ip), vehicle: saline) is 122 % of control; the T/C (dose: 12.5 mg/kg/injection, schedule: Q04DX003 (ip), vehicle: Klucel (hydroxypropylcellulose) (HPC)) was 186 % of control; the T/C (dose: 12.5 mg/kg/injection, schedule: Q04DX003 (ip), vehicle: saline with Tween-80) was 112 % of control; the T/C (dose: 25.0 mg/kg/injection, schedule: Q04DX002 (ip), vehicle: saline) was 156 % of control; the T/C (dose: 25.0 mg/kg/injection, schedule: Q04DX003 (ip), vehicle: Klucel (hydroxypropylcellulose) (HPC)) was 263 % of control. Moreover, the T/C was 152 % of control (dose: 25.0 mg/kg/injection, schedule: Q04DX003 (ip), vehicle: saline with Tween-80); 158 % of control (dose: 50.0 mg/kg/injection, schedule: Q04DX002 (ip), vehicle: Klucel (hydroxypropylcellulose) (HPC)); 242 % of control (dose: 50.0 mg/kg/injection, schedule: Q04DX003 (ip), vehicle: Klucel (hydroxypropylcellulose) (HPC)); 170 % of control (dose: 100.0 mg/kg/injection, schedule: Q04DX002 (ip), vehicle: Klucel (hydroxypropylcellulose) (HPC)); 150 % of control (dose: 100.0 mg/kg/injection, schedule: Q04DX002 (ip), vehicle: saline); 242 % of control under setting [1]. The T/C reads like this: (dose: 100.0 mg/kg/injection, schedule: Q04DX003 (ip), vehicle: saline with Tween-80) 165 % of control; (dose: 200.0 mg/kg/injection, schedule: Q04DX002 (ip), vehicle: saline) 156 % of control; (dose: 200.0 mg/kg/injection, schedule: Q04DX003 (ip), vehicle: saline with Tween-80) 214 % of control.

Regarding `COC(=O)[C@@]12OC[C@]34[C@H]([C@@H](O)[C@@H]1O)[C@@]1(C)CC(=O)C(O)=C(C)[C@@H]1C[C@H]3OC(=O)[C@H](OC(=O)/C=C(\C)C(C)C)[C@@H]24`, the T/C was 97 % of control (dose: 0.66 mg/kg/injection, schedule: Q04DX003 (iv), vehicle: saline with Tween-80); 94 % of control (dose: 1.0 mg/kg/injection, schedule: Q04DX003 (iv), vehicle: saline with Tween-80); 94 % of control (dose: 1.5 mg/kg/injection, schedule: Q04DX003 (iv), vehicle: saline with Tween-80); 92 % of control (dose: 2.3 mg/kg/injection, schedule: Q04DX003 (iv), vehicle: saline with Tween-80); 96 % of control (dose: 3.5 mg/kg/injection, schedule: Q04DX003 (iv), vehicle: saline with Tween-80).

Regarding `CCOC(=O)C1C2OC(=O)C(C(=O)C2CN(CCCl)CCCl)C1C1CC=C(CC2=CCC(C3C4C(=O)OC(C(CN(CCCl)CCCl)C4=O)C3C(=O)OCC)CC2)CC1` (centres undefined), the T/C was 216 % of control under setting [1] and 232 % of control (dose: 200.0 mg/kg/injection, schedule: Q04DX003 (ip), vehicle: Klucel (hydroxypropylcellulose) (HPC)).

With `CC(=O)C1(O)Cc2c(O)c3c(c(O)c2C(OC2CC(N)C(O)C(C)O2)C1)C(=O)c1ccccc1C3=O` (centres undefined), the T/C (dose: 1.4 mg/kg/injection, schedule: Q07DX002 (iv), vehicle: saline) was 107 % of control; the T/C (dose: 2.3 mg/kg/injection, schedule: Q07DX002 (iv), vehicle: saline) was 120 % of control; the T/C (dose: 324.0 micrograms/kg/injection, schedule: Q04DX003 (ip), vehicle: water) was 157 % of control; the T/C (dose: 900.0 micrograms/kg/injection, schedule: Q04DX003 (ip), vehicle: water) was 92 % of control.
